≈ marks a conversion by molar mass, not a printed value. Where “and” joins values, the source holds several entries; their conditions need not be identical. Identical values can stand only once. Like-named read-outs stand apart in the source and are kept apart here.
How the values were obtained:
E. faecalis = test: MIC (microbroth dilution); assay type: cell-based, Enterococcus faecalis
Description: (§1) All bacteria were maintained on tryptic soy agar (TSA), except Streptococcus spp., which were maintained on Columbia agar plates containing 5% horse blood. […] Bacteria were grown to stationary phase in liquid culture overnight, with shaking at 200 rpm, before being back diluted to the relevant starting concentration for each assay below. MICs were measured by the microbroth dilution method. […] Absorbance at OD600 was read on a CLARIOstar spectrophotometer (BMG Labtech) and the MIC was defined as the minimum concentration of compound where no visible growth was detected. […] MICs were also performed in the presence of the outer membrane permeator, polymyxin b nonapeptide (PMBN) following the same MIC method but with the following variation. The 2-fold dilution series of compound was prepared as above, then 50 μL of PMBN at a final concentration of 30 μg/mL was added to relevant wells, while 50 μL/well of blank media was added to the remaining wells. Bacteria were then added at 50 μL/well for a starting concentration as above. […] The MICs were read and defined as above. All animal procedures were performed by the contract research organization Pharmacology Discovery Services Taiwan in accordance with the Guide for the Care and Use of Laboratory Animals. The procedures were approved by the Institutional Ethics Committee of Pharmacology Discovery Services Taiwan, Ltd. (approval no. AB127662), in compliance with animal welfare legislation in Taiwan.

WT DNA gyrase = target: T1, WT DNA gyrase (Staphylococcus aureus, UniProt P0A0K8+P20831); test: DNA gyrase supercoiling inhibition assay; assay type: biochemical, S. aureus; details: WT enzyme; read-out: IC50 (converted)
T1 construct: purchased Inspiralis Ltd. (Norwich, UK)
Description: (§2) Gyrase inhibition was determined through biochemical assay kits from Inspiralis Ltd. (Norwich, UK), according to manufacturer’s instructions, and as described previously. Briefly, 1U of enzyme was incubated with 0.5 μg of relaxed […] DNA in the presence of compound in 1% DMSO for 30 min at 37 °C. A control reaction contained no compound but still contained 1% DMSO. The reactions were stopped through Stop Buffer addition and the DNA separated through addition of chloroform/iso-amyl alcohol (24;1). Samples were run on a 1% agarose gel at 75 V for 2 h, which was then stained with 1 μg/mL ethidium bromide and visualized using a NuGenius gel imager (Syngene). The intensity of the supercoiled DNA band was quantified using Syngene software, and the inhibition of the supercoiling of the DNA by the compounds was calculated.

[1] = target: T2, GyrA S84L mutant DNA gyrase (Staphylococcus aureus, UniProt P0A0K8+P20831, S84L); test: DNA gyrase supercoiling inhibition assay; assay type: biochemical, S. aureus; details: S84L mutant enzyme; read-out: IC50 (converted)
T2 construct: purchased Inspiralis Ltd. (Norwich, UK)
Description: as §2

Pseudomonas aeruginosa = test: MIC (microbroth dilution); assay type: cell-based
Description: (§3) All bacteria were maintained on tryptic soy agar (TSA), except Streptococcus spp., which were maintained on Columbia agar plates containing 5% horse blood. All bacterial assays were carried out in tryptic soy broth (TSB), except for Streptococcus spp. which were grown in cation-adjusted Mueller Hinton broth containing 2.5% lysed horse blood. Bacteria were grown to stationary phase in liquid culture overnight, with shaking at 200 rpm, before being back diluted to the relevant starting concentration for each assay below. MICs were measured by the microbroth dilution method. […] Absorbance at OD600 was read on a CLARIOstar spectrophotometer (BMG Labtech) and the MIC was defined as the minimum concentration of compound where no visible growth was detected. The compounds were prepared as a DMSO stock and equivalent concentrations of DMSO had no effect on bacterial growth. MICs were also performed in the presence of the outer membrane permeator, polymyxin b nonapeptide (PMBN) following the same MIC method but with the following variation. The 2-fold dilution series of compound was prepared as above, then 50 μL of PMBN at a final concentration of 30 μg/mL was added to relevant wells, while 50 μL/well of blank media was added to the remaining wells. Bacteria were then added at 50 μL/well for a starting concentration as above. Thirty μg/mL of PMBN had no effect on bacterial growth. The MICs were read and defined as above. All animal procedures were performed by the contract research organization Pharmacology Discovery Services Taiwan in accordance with the Guide for the Care and Use of Laboratory Animals. The procedures were approved by the Institutional Ethics Committee of Pharmacology Discovery Services Taiwan, Ltd. (approval no. AB127662), in compliance with animal welfare legislation in Taiwan.

Acinetobacter baumannii = test: MIC (microbroth dilution); assay type: cell-based
Description: as §3

[2] = Plasma protein binding (RED); assay type: in vitro ADME; details: pH 7.4
Description: Plasma protein binding was measured using a Rapid Equilibrium Dialysis (RED) assay. Test compounds and control compounds were added to plasma at 10 μM and dialyzed against phosphate-buffered saline (PBS, pH 7.4) for 4 h at 37 °C. […] The percentage of drug bound to plasma proteins was calculated by comparing the analyte response in the plasma compartment with that in the buffer compartment.

S. haemolyticus = test: MIC (microbroth dilution); assay type: cell-based, Staphylococcus haemolyticus; details: SH324
Description: as §3

K. pneumoniae = test: MIC (microbroth dilution); assay type: cell-based, Klebsiella pneumoniae
Description: as §1

S. aureus NCTC 13616 = test: Time-kill assay; assay type: cell-based; details: 4x MIC, 24 hours
Description: Time-kill assays were performed as defined previously.

[3] = tested on: NorA overexpressing strain NCTC 13616; test: Reserpine growth (efflux inhibition) assay; details: for AUC of growth curve: biological replicates 1-3, listed as ML-77-005
Description: Statistical analyses were performed with GraphPad Prism V9.5.0. […] Unpaired t tests were used when comparing two samples in the gyrase assays.

S. epidermidis = test: MIC (microbroth dilution); assay type: cell-based, Staphylococcus epidermidis; details: SE378
Description: as §1

E. faecium = test: MIC (microbroth dilution); assay type: cell-based, Enterococcus faecium
Description: as §3

S. aureus = test: Serial passaging, MIC of adapted strains; assay type: cell-based
Description: MICs were performed on the first and 10th passage.

[4] = Kinetic aqueous solubility; assay type: physicochemical; details: phosphate-buffered saline with 2% DMSO, pH 7.4, aqueous buffer, kinetic from dmso stock
Description: Kinetic aqueous solubility was determined using a standard LC-UV/MS-based assay. Test compounds were prepared from 10 mM DMSO stock solutions and diluted to a nominal concentration of 200 μM in phosphate-buffered saline (PBS, pH 7.4) containing 2% DMSO. Parallel dilutions in DMSO were used as reference standards. Samples were equilibrated at room temperature for 2 h with shaking, then filtered, and the filtrates were analyzed by LC-UV with mass spectrometric confirmation of the analyte peak. Solubility was determined by comparing the UV peak area of the PBS filtrate with those of the DMSO reference standards. The effective range of the assay was 10–200 μM.

O=C(O)c1cn(C2CC2)c2cc(N3CCN(Cc4cccc5ccccc45)CC3)c(F)cc2c1=O [Compound 8, 1-Cyclopropyl-6-fluoro-7-(4-(naphthalen-1-ylmethyl)piperazin-1-yl)-4-oxo-1,4-dihydroquinoline-3-carboxylic acid]
MIC (E. faecalis; EF602): 2 µg/mL (≈ 4.24 µM)
MIC (E. faecalis; Enterococcus faecalis, NCTC775, NCTC 775, read-out: MIC): 2 µg/mL (≈ 4.24 µM)
MIC (E. faecalis; Enterococcus faecalis, NCTC12201, NCTC 12201, read-out: MIC): 0.125 µg/mL (≈ 0.265 µM)
MIC (E. faecalis; Enterococcus faecalis, NCTC12204, NCTC 12204, read-out: MIC): 2 µg/mL (≈ 4.24 µM)
MIC (E. faecalis; NCTC 775): 2 µg/mL (≈ 4.24 µM)
MIC (E. faecalis; NCTC 12201): 0.5 µg/mL (≈ 1.06 µM)
IC50 (WT DNA gyrase): > 271 µM
IC50 [1]: 94.9 µM
MIC (Pseudomonas aeruginosa; NCTC 13437): 128 µg/mL (≈ 271 µM)
MIC (Pseudomonas aeruginosa; NCTC 13437, +PMBN): 32 µg/mL (≈ 67.9 µM)
MIC (Pseudomonas aeruginosa; PAO1, + PMBN): 0.125 µg/mL
MIC (Pseudomonas aeruginosa; Pseudomonas aeruginosa, PAO1, read-out: MIC): > 128 µg/mL
MIC (Acinetobacter baumannii; ATCC 17978, +PMBN): 0.125 µg/mL (≈ 0.265 µM)
MIC (Acinetobacter baumannii; AYE, +PMBN): 32 µg/mL (≈ 67.9 µM)
MIC (Acinetobacter baumannii; Acinetobacter baumannii, ATCC17978, ATCC 17978, read-out: MIC): 4 µg/mL (≈ 8.48 µM)
MIC (Acinetobacter baumannii; Acinetobacter baumannii, BAA1710, BAA-1710 (AYE), read-out: MIC): > 128 µg/mL
fraction unbound at 4 h, 10 μM [2]: < 0.01
MIC (S. haemolyticus): 4 µg/mL (≈ 8.48 µM)
MIC (K. pneumoniae; Klebsiella pneumoniae, M6, read-out: MIC): 32 to 64 µg/mL (≈ 67.9 to 136 µM)
MIC (K. pneumoniae; Klebsiella pneumoniae, NCTC13368): > 128 µg/mL
MIC (K. pneumoniae; M6, +PMBN, in µg/mL): 0.5
MIC (K. pneumoniae; NCTC 13368, +PMBN, in µg/mL): 1-2
time-kill profile (S. aureus NCTC 13616): comparable bacteriostatic profiles
AUC of growth curve ([3]; 0.25 MIC + R (reserpine)): 3.096 and 3.206 and 1.480
AUC of growth curve ([3]; 0.25 MIC): 3.117 and 3.088 and 3.115
AUC of growth curve ([3]; 0.5 MIC + R (reserpine)): 3.021 and 2.572 and 0.9525
AUC of growth curve ([3]; 0.5 MIC): 1.068 and 2.766 and 2.838
efflux liability in reserpine assay ([3]; 0.5x MIC with vs without reserpine): not a substrate of NorA
MIC (S. epidermidis): 0.25 to 2 µg/mL
MIC (E. faecium; EF205): 2 µg/mL (≈ 4.24 µM)
MIC (E. faecium; NCTC 12204): 2 µg/mL (≈ 4.24 µM)
MIC (S. aureus; ATCC 9144 4x (passaged with Compound 8)): 2 µg/mL
MIC (S. aureus; ATCC 9144 WT): 0.5 µg/mL
MIC (S. aureus; NCTC 13616 4x (passaged with Compound 8)): 4 µg/mL
MIC (S. aureus; NCTC 13616 WT): 2 µg/mL
solubility at 2 h [4]: < 5 µM

Reference: PMC13266999, “Designing Antibiotics with Inherent Resistance to Efflux as a Strategy to Revive Discovery against Multidrug-Resistant Pathogens” (Journal of Medicinal Chemistry, 2026)
